We go through 4 molecules from US20130295026A1, “FAST DISINTEGRATING COMPOSITIONS COMPRISING NABILONE AND RANDOMLY METHYLATED BETA CYCLODEXTRIN” (priority 2010, published 2013).

Data set [1] is described as follows: Amount of Nabilone solubilized by cyclodextrin solutions, determined by extraction of the drug from lyophilized complexes (HPLC). As to conditions: for Increase of Nabilone solubility compared to water: water <0.5 μg/ml. As to the method:
For the preparation of solubility isotherms, a surplus of Nabilone was added to a dilution series of cyclodextrins in distilled water. The surplus of Nabilone was approximately 130% of the maximum amount of Nabilone that could be resolved theoretically in the cyclodextrin solution. For the preparation of standard curves, an accurately weighted amount of Nabilone was added to an aqueous RAMEB solution. Then, the suspensions were stirred at 600 rpm at a constant temperature (4° C.-40° C.) in the cold room or in an environmental simulation chamber for the time periods indicated. Afterwards, the samples were centrifuged at 10,000 rpm and filtrated to remove undissolved particles prior to freeze-drying or HPLC analysis.
The filtrated solutions of the Nabilone—cyclodextrin complexes were frozen as a thin film on the inner side of round bottom glass container in a methanol—dry ice bath. Lyophilization was performed for 20 h using a Heto Power Dry LL3000 instrument (Thermo Fisher Scientific).
Freeze-dried products were stirred with acetonitrile for 30 min to promote complex dissociation and extraction of Nabilone. Samples were centrifuged and the residue was washed again two times with acetonitrile. Combined acetonitrile supernatants were evaporated under vacuum and the residue dissolved in a defined amount of acetonitrile. After centrifugation (10,000 rpm, 5 min) the content of Nabilone was measured using HPLC and related to 1 ml of the initial reaction solution.
Many cyclodextrins and cyclodextrin derivatives are not soluble in acetonitrile, which in contrast is the optimal solvent for Nabilone, preventing analysis of the Nabilone-cyclodextrin complexes with HPLC. […] The concentrations of the cyclodextrin solutions were adapted to their solubility in water. Whenever possible, concentrations of 15%, 20%, and 30% were selected.

For data set [2] the following is noted: 25° C; cited from earlier work.

Broadly, the solubility is the dissolved amount per volume that the medium holds. A low value points to a poorly soluble substance.

Take “β-CD sulfobutyl ether sodium salt [SBE-β-CD]”: the “Amount of Nabilone solubilized by 1 ml cyclodextrin solution” value (“Amount of Nabilone solubilized” below) in data set [1] (30% cyclodextrin solution) was less than 1 µg/mL.
Turning to “randomly methylated β-Cyclodextrin [RAMEB]”, the “Amount of Nabilone solubilized” value in data set [1] (15% cyclodextrin solution) was 2620 ± 70 µg/mL; in data set [1] (20% cyclodextrin solution), 3330 ± 390 µg/mL; in data set [1] (30% cyclodextrin solution), 4,460±180 μg/ml. In addition, the “Increase of Nabilone solubility compared to water” value in data set [1] (30% cyclodextrin solution) is listed as “up to 9.000 fold”.
Regarding hydroxypropyl-β-Cyclodextrin [HP-β-CD], the entries for the “Amount of Nabilone solubilized” value in data set [1] (15% cyclodextrin solution), in data set [1] (20% cyclodextrin solution) and in data set [1] (30% cyclodextrin solution) were 16.2 ± 5.4 µg/mL, 32.2 ± 0.1 µg/mL and 44.5 ± 0.8 µg/mL, respectively. In addition, in data set [1] (30% cyclodextrin solution), the “Increase of Nabilone solubility compared to water” value worked out at 90 fold.
Take `CCCCCCC(C)(C)c1cc(O)c2c(c1)OC(C)(C)C1CCC(=O)CC21` (stereo not drawn) [Nabilone]: the “Nabilone solubility in water” value in data set [1] (H2O, no cyclodextrin) stood at 0.5 µg/mL. Also, in data set [1] (water, thermodynamic from solid, Nabilone solubility in water, H2O, no cyclodextrin), the solubility is less than 0.5 µg/mL. The “Aqueous solubility of Nabilone” value in data set [2] is listed as “less than 0.5 μg/ml”.
